Laboratory results reported in ChEMBL document CHEMBL3044627, “Residual and sublethal effects of fenpyroximate and pyridaben on the instantaneous rate of increase of Tetranychus urticae” (Crop Prot, 2006).
Active and inactive are the calls of the source. No cut-off for these calls is given here.

Columns and labels:
Type in all cases: functional, organism-based
Tetranychus urticae [1] = test: Acaricidal activity against Tetranychus urticae (two-spotted spider mite) infested kidney bean leaves assessed as decrease in reproduction of survivors applied as spray after 7 days
Tetranychus urticae [2] = test: Acaricidal activity against Tetranychus urticae (two-spotted spider mite) infested kidney bean leaves assessed as decrease in reproduction of survivors applied as spray after 5 days
Tetranychus urticae [3] = test: Acaricidal activity against Tetranychus urticae (two-spotted spider mite) infested kidney bean leaves assessed as decrease in reproduction of survivors applied as spray after 3 days
Tetranychus urticae [4] = test: Acaricidal activity against Tetranychus urticae (two-spotted spider mite) infested kidney bean leaves assessed as decrease in survivors of progeny applied as spray after 7 days
Tetranychus urticae [5] = test: Acaricidal activity against Tetranychus urticae (two-spotted spider mite) infested kidney bean leaves assessed as decrease in survivors of progeny applied as spray after 5 days
Tetranychus urticae [6] = test: Acaricidal activity against Tetranychus urticae (two-spotted spider mite) infested kidney bean leaves assessed as decrease in survivors of progeny applied as spray after 3 days
Tetranychus urticae [7] = test: Acaricidal activity against Tetranychus urticae (two-spotted spider mite) infested kidney bean leaves assessed as decrease in survivors of progeny applied as spray after 1 day
Tetranychus urticae [8] = test: Acaricidal activity against Tetranychus urticae (two-spotted spider mite) infested kidney bean leaves assessed as decrease in reproduction of survivors applied as spray after 9 days
Tetranychus urticae [9] = test: Acaricidal activity against Tetranychus urticae (two-spotted spider mite) infested kidney bean leaves assessed as decrease in immature production at 6.4 to 46.6 ppm applied as spray after 3 to 6 days
Tetranychus urticae [10] = test: Acaricidal activity against Tetranychus urticae (two-spotted spider mite) infested kidney bean leaves assessed as decrease in survival at 6.4 to 46.6 ppm applied as spray after 7 to 9 days relative to control
Tetranychus urticae [11] = test: Acaricidal activity against Tetranychus urticae (two-spotted spider mite) infested kidney bean leaves assessed as decrease in survival at 6.4 to 46.6 ppm applied as spray up to 5 days relative to control
Tetranychus urticae [12] = test: Acaricidal activity against Tetranychus urticae (two-spotted spider mite) infested kidney bean leaves assessed as decrease in reproduction of survivors applied as spray after 1 day
Tetranychus urticae [13] = test: Acaricidal activity against Tetranychus urticae (two-spotted spider mite) infested kidney bean leaves assessed as decrease in survivors of progeny applied as spray after 9 days
Tetranychus urticae [14] = test: Acaricidal activity against Tetranychus urticae (two-spotted spider mite) infested kidney bean leaves assessed as decrease in immature production at 2101 ppm applied as spray after 3 to 6 days
Tetranychus urticae [15] = test: Acaricidal activity against Tetranychus urticae (two-spotted spider mite) infested kidney bean leaves assessed as decrease in egg production applied as spray after 3 to 6 days
Tetranychus urticae [16] = test: Acaricidal activity against Tetranychus urticae (two-spotted spider mite) infested kidney bean leaves assessed as decrease in survival at 2101.3 to 20446.5 ppm applied as spray after 3 days relative to control

Row | SMILES | EC50 (Tetranychus urticae [1]) | EC50 (Tetranychus urticae [2]) | EC50 (Tetranychus urticae [3]) | EC50 (Tetranychus urticae [4]) | EC50 (Tetranychus urticae [5]) | EC50 (Tetranychus urticae [6]) | EC50 (Tetranychus urticae [7]) | EC50 (Tetranychus urticae [8]) | Activity (Tetranychus urticae [9]) | Activity (Tetranychus urticae [10]) | Activity (Tetranychus urticae [11]) | EC50 (Tetranychus urticae [12]) | EC50 (Tetranychus urticae [13]) | Activity (Tetranychus urticae [14]) | Activity (Tetranychus urticae [15]) | Activity (Tetranychus urticae [16])
1 | Cc1nn(C)c(Oc2ccccc2)c1/C=N/OCc1ccc(C(=O)OC(C)(C)C)cc1 [FENPYROXYMATE] | 124 ppm | 130.8 ppm | 131.1 ppm | 70.1 ppm | 72.7 ppm | 99 ppm | 116.2 ppm | 253.7 ppm | Active | inactive | Active | 114.6 ppm | 104 ppm | – | – | –
2 | CC(C)(C)c1ccc(CSc2cnn(C(C)(C)C)c(=O)c2Cl)cc1 [PYRIDABEN] | 19425.1 ppm | 19439.6 ppm | 19162.1 ppm | – | – | – | – | 49880.7 ppm | – | – | – | 9118.1 ppm | – | Active | Dose-dependent effect | inactive
